ChEMBL document CHEMBL1649100, “N-3 Hydroxylation of Pyrimidine-2,4-diones Yields Dual Inhibitors of HIV Reverse Transcriptase and Integrase” (ACS Med Chem Lett, 2011)

Tests used:
[1] = target: Human immunodeficiency virus type 1 reverse transcriptase (Human immunodeficiency virus 1, UniProt Q72547); experiment: Inhibition of HIV1 reverse transcriptase
[2] = system: Human immunodeficiency virus 1; experiment: Antiviral activity against HIV1 3B infected in human CEM-SS cells assessed as inhibition of viral replication after 6 days by MTS assay; assay type: functional, organism-based; conditions: Human immunodeficiency virus 1, 3B, 144 h
[3] = Inhibition of HIV integrase strand transfer activity expressed in Escherichia coli; design: species or system Human immunodeficiency virus
[4] = Inhibition of HIV integrase 3' processing activity expressed in Escherichia coli; design: species or system Human immunodeficiency virus
[5] = Therapeutic index, ratio of CC50 for human CEM-SS cells to EC50 for HIV1 3B; assay type: cell-based; conditions: read-out: Ratio CC50/EC50
[6] = Cytotoxicity in human CEM-SS cells after 6 days by MTS assay; assay type: cell-based

CC(C)c1c(Cc2ccc(F)cc2)n(COCc2ccc(F)cc2)c(=O)n(O)c1=O
IC50 [1]: > 100 µM
EC50 [2]: > 10 µM
IC50 [3]: 5.5 µM
IC50 [4]: > 333 µM

CC(C)c1c(Cc2ccccc2)n(COCc2ccccc2)c(=O)n(O)c1=O
IC50 [1]: 6.2 µM
EC50 [2]: 0.008 µM
IC50 [3]: 21 µM
selectivity ratio [5]: > 2500
IC50 [4]: > 333 µM
CC50 at 144 h [6]: > 20 µM

CC(C)c1c(Cc2ccc(F)cc2)n(COCc2ccccc2)c(=O)n(O)c1=O
IC50 [1]: > 100 µM
EC50 [2]: > 10 µM
IC50 [3]: 7.3 µM
IC50 [4]: > 333 µM

CC(C)c1c(Cc2ccccc2)n(COCc2ccc(F)cc2)c(=O)n(O)c1=O
IC50 [1]: 0.17 µM
EC50 [2]: 0.024 µM
IC50 [3]: 3.5 µM
selectivity ratio [5]: > 830
IC50 [4]: > 333 µM
CC50 at 144 h [6]: > 20 µM

CCc1c(Cc2ccccc2)n(COCc2ccccc2)c(=O)n(O)c1=O
IC50 [1]: 9.4 µM
EC50 [2]: 1.1 µM
IC50 [3]: 8.2 µM
selectivity ratio [5]: > 18
IC50 [4]: > 333 µM
CC50 at 144 h [6]: > 20 µM

CC(C)c1c(Cc2ccccc2)n(COCc2ccccc2)c(=O)n(N)c1=O
IC50 [1]: 1.5 µM
EC50 [2]: > 10 µM
IC50 [3]: > 333 µM
IC50 [4]: > 333 µM

CCOCn1c(Cc2ccccc2)c(C(C)C)c(=O)n(O)c1=O
IC50 [1]: 13 µM
EC50 [2]: 4.3 µM
IC50 [3]: 85 µM
selectivity ratio [5]: > 4.7
IC50 [4]: > 333 µM
CC50 at 144 h [6]: > 20 µM

CCOCn1c(Cc2ccc(F)cc2)c(C(C)C)c(=O)n(O)c1=O
IC50 [1]: > 100 µM
EC50 [2]: > 10 µM
IC50 [3]: 105 µM
IC50 [4]: > 333 µM

CC(C)c1c(Cc2ccccc2)n(COCc2ccccc2)c(=O)[nH]c1=O
IC50 [1]: 0.04 µM
EC50 [2]: 0.013 µM
IC50 [3]: > 333 µM
selectivity ratio [5]: > 1500
IC50 [4]: > 333 µM
CC50 at 144 h [6]: > 20 µM
